Measured values as given in US12268683B2, “Compounds and methods for synergistic activation of M channels” (THE REGENTS OF THE UNIVERSITY OF CALIFORNIA, priority 2018, dated 2025).
Entries after “also recorded” stand apart in the source; their conditions may differ.

Molecular target: KCNQ2/KCNQ3-W265L (Homo sapiens, UniProt O43525+O43526, W265L)
Test: TEVC of KCNQ2/KCNQ3-W265L channels
Assay type: cell-based
Excerpt: cRNA transcripts encoding human KCNQ2, KCNQ3, KCNQ4, KCNQ5 (Kv7.2-Kv7.5) were generated by in vitro transcription using the T7 polymerase mMessage mMachine kit (Thermo Fisher Scientific), after vector linearization, from cDNA sub-cloned into plasmids incorporating Xenopus laevis β-globin 5′ and 3′ UTRs flanking the coding region to enhance translation and cRNA stability. cRNA was quantified by spectrophotometry. Mutant KCNQ2 and KCNQ3 cDNAs were generated with site-directed mutagenesis using a QuikChange kit according to the manufacturer's protocol (Stratagene, San Diego, Calif.) and corresponding cRNAs prepared as above. Defolliculated stage V and VI Xenopus laevis oocytes (Ecocyte Bioscience, Austin, Tex.) were injected with KCNQ channel α subunit cRNAs (5-10 ng). The oocytes were incubated at 16° C. in Barth's saline solution (Ecocyte) containing penicillin and streptomycin, with daily washing, for 2-5 days prior to two-electrode voltage-clamp (TEVC) recording.
TEVC recording was performed at room temperature using a OC-725C amplifier (Warner Instruments, Hamden, Conn.) and pClamp8 software (Molecular Devices, Sunnyvale, Calif.) 2-5 days after cRNA injection as described in the section above. The oocytes were placed in a small-volume oocyte bath (Warner) and viewed with a dissection microscope. Unless otherwise stated, chemicals were sourced from Sigma. Bath solution was (in mM): 96 NaCl, 4 KCl, 1 MgCl2, 1 CaCl2, 10 HEPES (pH 7.6). […] The drugs were introduced into the recording bath by gravity perfusion at a constant flow of 1 ml per minute for 3 minutes prior to recording. Pipettes were of 1-2 MΩ resistance when filled with 3 M KCl. Currents were recorded in response to pulses between −80 mV and +40 mV at 20 mV intervals, or a single pulse to +40 mV, from a holding potential of −80 mV, to yield current-voltage relationships, current magnitude, and for quantifying activation rate. Deactivation was recorded at −80 mV after a single pulse to +40 mV, from a holding potential of −80 mV. Electrophysiology data analysis was performed with Clampfit (Molecular Devices) and Graphpad Prism software (GraphPad, San Diego, Calif., USA); values are stated as mean±SD. Raw or normalized tail currents were plotted versus prepulse voltage and fitted with a single Boltzmann function:
As previously described (12), we generated cRNA transcripts encoding human KCNA1, KCNE1, KCNE2, KCNE3, KCNQ1, KCNQ2, KCNQ3, KCNQ4 or KCNQ5 by in vitro transcription using the T7 polymerase mMessage mMachine kit (Thermo Fisher Scientific), after vector linearization, from cDNA sub-cloned into plasmids incorporating Xenopus laevis β-globin 5′ and 3′ UTRs flanking the coding region to enhance translation and cRNA stability. We quantified cRNA by spectrophotometry. […]

SMILES | effect on KCNQ2/KCNQ3-W265L (in words) | maximal shift in ΔV0.5activation ((E)-2-dodecenal) | EC50 (ΔV0.5activation, read-out: EC50 of (E)-2-dodecenal)
CS(=O)(=O)N(CC(=O)O)c1cccc(F)c1 [3FMSG] | dependent on KCNQ3-W265; also recorded: eliminated effects of 3FMSG |  | 
CCCCCCCCC/C=C/C=O [(E)-2-dodecenal] |  | −9 mV | 270 ± 20 nM
NCC1(CC(=O)O)CCCCC1 [gabapentin, reference compound] | insensitive |  | 
